These are literature values, as cited in US8691283B2, “Standardized bee venom preparation” (priority 2000, dated 2014).

For the data set, the system named is hypophyseal-adrenal system. The note with it: melittin stimulates the hypophyseal-adrenal system and produces cortisone.

Turning to `CC[C@H](C)[C@H](NC(=O)CN)C(=O)NCC(=O)N[C@@H](C)C(=O)N[C@H](C(=O)N[C@@H](CC(C)C)C(=O)N[C@@H](CCCCN)C(=O)N[C@H](C(=O)N[C@@H](CC(C)C)C(=O)N[C@H](C(=O)N[C@H](C(=O)NCC(=O)N[C@@H](CC(C)C)C(=O)N1CCC[C@H]1C(=O)N[C@@H](C)C(=O)N[C@@H](CC(C)C)C(=O)N[C@H](C(=O)N[C@@H](CO)C(=O)N[C@@H](Cc1c[nH]c2ccccc12)C(=O)N[C@H](C(=O)N[C@@H](CCCCN)C(=O)N[C@@H](CCCNC(=N)N)C(=O)N[C@@H](CCCCN)C(=O)N[C@@H](CCCNC(=N)N)C(=O)N[C@@H](CCC(N)=O)C(=O)N[C@@H](CCC(N)=O)C(N)=O)[C@@H](C)CC)[C@@H](C)CC)[C@@H](C)O)[C@@H](C)O)C(C)C)C(C)C` [melittin, Melittin], the “potency relative to hydrocortisone” value was 100 times.
